Data taken from US20230346883A1, “COMPOSITIONS FOR AND METHODS OF TREATMENT WITH MUTANT A1 ADENOSINE RECEPTOR PLASMID cDNAs” (Endacea, Inc., priority 2022, published 2023).

Test system: PC3 Tumors (Human Prostate Carcinoma)
Assay: Treatment of PC3 xenograft tumors in athymic nude mice, tumor volume
Assay type: in vivo
Conditions: dosed twice/week
Experimental: • 1. Animals: • 46 Athymic nude mice (ENVIGO, male, 5-6 weeks old, R #: 4269, PO #: 236172) were used in this study. All mice were ear tagged for identification purposes. • 2. Animal Husbandry: • Upon arrival, animals were examined to ensure that they were healthy. The animals were housed in autoclaved solid floor polycarbonate cages. Housing and sanitation were performed. All animal handling was performed in a laminar flow hood. Animals were housed in filter-topped cages within a HEPA filtered clean room. • 3. Cell Culture and Implantation: • PC3 cell line was obtained from American Type Culture Collection (Manassas, VA). The cells were cultured in 75 cm^2 flask containing Eagle's Minimum Essential Medium supplemented with 10% fetal bovine calf serum (FBS) and incubated at 37° C. in humidified atmosphere of 5% CO2. As cells became 80% confluent, cultures were expanded to 150 cm^2 flasks, and expanded further until sufficient cells were available for injection. • Cancer cells were subcutaneously injected into right flank, 10 million cells/each mouse for PC3 cells. • 4. Assignment to Treatment Groups: • The animals were ear tagged for identification purposes. The animals were assigned to 4 study groups with 10 mice in each group based upon tumor volume. • 5. The mice were dosed twice a week for 6 weeks.
The Paclitaxel was stored at ambient temperature. Lipid nanoparticle (LNP) suspensions were stored at 4° C. Unopened vials were maintained in their original container at 4° C. until ready for use. 50 μl of LNP treatment was drawn via large bore needle (16G needle) from vial. All LNP treatments were allowed to reach room temperature by standing at ambient temperature. There was no heating. The large bore needle was replaced with a small-bore needle (25G) for tumor injection. • 6. Tumor Monitoring: • The xenograft tumors were measured three times a week with a digital caliper. • Tumor volumes were calculated using the formula:
Tumor Volume=length×width×width×½ • 7. Statistical Analysis: • Tumor sizes and body weights were analyzed using Student's t-test. P values <0.05 were considered as statistically significant.

## CC(=O)O[C@H]1C(=O)[C@@]2(C)[C@H]([C@H](OC(=O)c3ccccc3)[C@]3(O)C[C@H](OC(=O)[C@H](O)[C@@H](NC(=O)c4ccccc4)c4ccccc4)C(C)=C1C3(C)C)[C@]1(OC(C)=O)CO[C@@H]1C[C@@H]2O [Paclitaxel]
Therapy day 0
  Average Tumor Volume (Mean): 108.0 Mm^3
Therapy day 3
  Average Tumor Volume (Mean): 105.7 Mm^3
Therapy day 5
  Average Tumor Volume (Mean): 111.7 Mm^3
Therapy day 7
  Average Tumor Volume (Mean): 129.6 Mm^3
Therapy day 10
  Average Tumor Volume (Mean): 108.4 Mm^3
Therapy day 12
  Average Tumor Volume (Mean): 98.1 Mm^3
Therapy day 14
  Average Tumor Volume (Mean): 84.2 Mm^3
Therapy day 17
  Average Tumor Volume (Mean): 66.6 Mm^3
Therapy day 19
  Average Tumor Volume (Mean): 61.8 Mm^3
Therapy day 21
  Average Tumor Volume (Mean): 56.6 Mm^3
Therapy day 24
  Average Tumor Volume (Mean): 48.7 Mm^3
Therapy day 26
  Average Tumor Volume (Mean): 34.6 Mm^3
Therapy day 28
  Average Tumor Volume (Mean): 31.1 Mm^3
Therapy day 31
  Average Tumor Volume (Mean): 26.6 Mm^3
Therapy day 35
  Average Tumor Volume (Mean): 25.3 Mm^3
Therapy day 38
  Average Tumor Volume (Mean): 24.4 Mm^3
Therapy day 40
  Average Tumor Volume (Mean): 24.2 Mm^3
Therapy day 42
  Average Tumor Volume (Mean): 27.2 Mm^3
Therapy day 45
  Average Tumor Volume (Mean): 17.8 Mm^3
